Test results published in US6825192B1, “Heterodiazinone derivatives” (Eisai Co., Ltd., priority 1999, dated 2004).
Structures can show the parent of a compound that is named as a salt.

System: AMPA receptor
Assay: Inhibitory action on AMPA-inducing inflow of calcium into nerve cells (Fura2-AM)
Type: cell-based
Settings: rat cerebral cortex nerve cells on astrocytes, 1 μM MK-801, stimulated by 2 μM AMPA, fluorescence 340/380 nm
Procedure: The cerebral cortex was excised from the brain of a rat on day 18 after birth and treated with trypsin and DNase, whereby the cells were dispersed. The cells were allowed to float on DMEM containing 10% serum, inoculated into a culture bottle, and their astrocytes were grown. The astrocytes were re-dispersed with trypsin and inoculated onto each well on a 96-well plate. After it was confirmed that the bottom of each well was completely covered with the astrocytes after culture for 1 week, cerebral cortex nerve cells dispersed in the same manner as above were inoculated thereon. After 24 hours, the medium was exchanged with fresh one, and after culture for further 1 week, the medium was exchanged with a medium containing 1 μM MK-801.
The inflow of calcium into the cells was measured using Fura2-AM that is a calcium-sensitive fluorescent pigment. By treating the cells with a Fura2-AM-containing medium for 1 hour, Fura2-AM was incorporated into the cells, and the medium was exchanged with a Tyrode solution containing 1 μM MK-801. After a test compound was added, the cells were stimulated by 2 μM AMPA. The change in the amount of calcium flowing into the cells was measured as a change in the fluorescence intensity at wavelengths of 340/380 nm. The effect of a test compound was evaluated where the reaction caused by AMPA added to the Tyrode solution free of the test compound was used as the control.

Structure (SMILES)	IC50
Nc1cccc(C2=NN(c3ccccc3)C(=O)CO2)c1 [Example 78, 2-(3-aminophenyl)-4-phenyl-4H-1,3,4-oxadiazine-5(6H)-one]	31.8 µM
O=C1COC(c2ccccc2OCCN2CCCCC2)=NN1c1ccccc1 [Example 59, 2-{2-[2-(1-Piperidyl)ethoxy]phenyl}-4-phenyl-4H-1,3,4-oxadiazine-5(6H)-one]	8.29 µM
N#Cc1cccc(N2N=C(c3ccccc3)OCC2=O)c1 [Example 46, 2-Phenyl-4-(3-cyanophenyl)-4H-1,3,4-oxadiazine-5(6H)-one]	13.1 µM
N#Cc1cccnc1N1N=C(c2ccccc2)OCC1=O [Example 40, 2-Phenyl-4-(3-cyano-2-pyridyl)-4H-1,3,4-oxadiazine-5(6H)-one hydrochloride]	34.8 µM
O=C1COC(c2ccccc2)=NN1C1CCN(Cc2ccccc2)CC1 [Example 86, 2-Phenyl-4-(1-benzyl-4-piperidyl)-4H-1,3,4-oxadiazine-5(6H)-one hydrochloride]	16.9 µM
O=C1COC(/C=C/c2ccccc2)=NN1c1ccccc1 [Example 15, 2-Styryl-4-phenyl-4H-1,3,4-oxadiazine-5(6H)-one]	27.5 µM
O=C1COC(c2ccccc2OCCN2CCCC2)=NN1c1ccccc1 [Example 60, 2-{2-[2-(1-Pyrrolidinyl)ethoxy]phenyl}-4-phenyl-4H-1,3,4-oxadiazine-5(6H)-one]	7.26 µM
COc1ccccc1N1N=C(c2ccccn2)OCC1=O [Example 35, 2-(2-Pyridyl)-4-(2-methoxyphenyl)-4H-1,3,4-oxadiazine-5(6H)-one]	42.7 µM
O=C1COC(c2ccncc2)=NN1c1ccccc1 [Example 94, 2-(4-Pyridyl)-4-phenyl-4H-1,3,4-oxadiazine-5(6H)-one hydrochloride]	98.7 µM
O=C1COC(c2ccc[nH]2)=NN1c1ccccc1 [Example 6, 2-(2-Pyrrolyl)-4-phenyl-4H-1,3,4-oxadiazine-5(6H)-one]	48 µM
N#Cc1ccccc1N1N=C(c2ccccn2)OCC1=O [Example 106, 2-(2-Pyridyl)-4-(2-cyanophenyl)-4H-1,3,4-oxadiazine-5(6H)-one]	7.3 µM
O=C1COC(c2ccccc2[N+](=O)[O-])=NN1c1ccccc1 [Example 20, 2-(2-Nitrophenyl)-4-phenyl-4H-1,3,4-oxadiazine-5(6H)-one]	28.2 µM
CN(C)CCOc1ccccc1C1=NN(c2ccccc2)C(=O)CO1 [Example 61, 2-[2-(2-Dimethylaminoethoxy)phenyl]-4-phenyl-4H-1,3,4-oxadiazine-5(6H)-one hydrochloride]	4.61 µM
CC1(C)OC(c2ccccc2)=NN(c2ccccc2)C1=O [Example 107, 2,4-Diphenyl-6,6-dimethyl-4H-1,3,4-oxadiazine-5-one]	6.4 µM
O=C1COC(c2ccccc2O)=NN1c1ccccc1 [Example 49, 2-(2-Hydroxyphenyl)-4-phenyl-4H-1,3,4-oxadiazine-5(6H)-one]	2.7 µM
CC(c1cccnc1)N1N=C(c2ccccc2)OCC1=O (stereo not drawn) [Example 88, 2-Phenyl-4-[1-(3-pyridyl)ethyl]-4H-1,3,4-oxadiazine-5(6H)-one oxalate]	52.3 µM
CN(CCOc1ccccc1C1=NN(c2ccccc2Br)C(=O)CO1)Cc1ccccc1 [Example 103, 2-{2-[2-(N-Benzyl-N-methyl)amino]ethoxyphenyl}-4-(2-bromophenyl)-4H-1,3,4-oxadiazine-5(6H)-one]	4.2 µM
O=C1COC(c2ccccc2OCCN2CCOCC2)=NN1c1ccc(F)cc1F [Example 71, 2-{2-[2-(4-Morpholinyl)ethoxy]phenyl}-4-(2,4-difluorophenyl)-4H-1,3,4-oxadiazine-5(6H)-one hydrochloride]	21 µM
Cn1cccc1C1=NN(c2ccccc2)C(=O)CO1 [Example 3, 2-(1-Methyl-2-pyrolyl)-4-phenyl-4H-1,3,4-oxadiazine-5(6H)-one]	33.2 µM
COc1ccccc1C1=NN(c2ccccc2F)C(=O)CO1 [Example 26, 2-(2-Methoxyphenyl)-4-(2-fluorophenyl)-4H-1,3,4-oxadiazine-5(6H)-one]	10.8 µM
O=C1COC(c2ccccc2OCCN2CCOCC2)=NN1C1CCCCC1 [Example 69, 2-{2-[2-(4-Morpholinyl)ethoxy]phenyl}-4-cyclohexyl-4H-1,3,4-oxadiazine-5(6H)-one hydrochloride]	68.7 µM
O=C1COC(c2ccccn2)=NN1c1ccccc1F [Example 34, 2-(2-Pyridyl)-4-(2-fluorophenyl)-4H-1,3,4-oxadiazine-5(6H)-one]	9.21 µM
O=C1COC(c2ccccc2O)=NN1c1ccc(F)cc1 [Example 52, 2-(2-Hydroxyphenyl)-4-(4-fluorophenyl)-4H-1,3,4-oxadiazine-5(6H)-one]	1.52 µM
O=C1C(O)SC(c2ccccc2)=NN1c1ccccc1 (stereo not drawn) [Example 102, 2,4-Diphenyl-6-hydroxy-4-1,3,4-thiadiazine-5-one]	8.2 µM

Structure (SMILES)	IC50
O=C1COC(c2ccccc2)=NN1c1ccccc1CO [Example 41, 2-Phenyl-4-(2-hydroxymethylphenyl)-4H-1,3,4-oxadiazine-5(6H)-one]	53.3 µM
O=C1COC(c2ccccc2)=NN1C1CCCCC1 [Example 27, 2-Phenyl-4-cyclohexyl-4H-1,3,4-oxadiazine-5(6H)-one]	33.1 µM
O=C1C(c2ccccc2)OC(c2ccccc2)=NN1c1ccccc1 (stereo not drawn) [Example 108, 2,4,6-triphenyl-4H-1,3,4-oxadiazine-5-one]	13.2 µM
O=C1COC(c2ccccc2)=NN1c1c(Cl)cccc1Cl [Example 101, 2-Phenyl-4-(2,6-dichlorophenyl)-4H-1,3,4-oxadiazine-5(6)-one]	3.4 µM
O=C1COC(/C=C/c2cccnc2)=NN1c1ccccc1 [Example 16, 2-[2-(3-Pyridyl)vinyl]-4-phenyl-4H-1,3,4-oxadiazine-5(6H)-one]	24.9 µM
CNCCOc1ccccc1C1=NN(c2ccccc2Br)C(=O)CO1 [Example 104, 2-[2-(Methylamino)ethoxyphenyl]-4-(2-bromophenyl)-4H-1,3,4-oxadiazine-5(6H)-one]	2.7 µM
O=C1COC(c2ccccn2)=NN1c1ccccc1I [Example 105, 2-(2-Pyridyl)-4-(2-iodophenyl)-4H-1,3,4-oxadiazine-5(6H)-one]	1.9 µM
Cc1cccc(C2=NN(c3ccccc3)C(=O)CO2)n1 [Example 8, 2-(6-Methyl-2-pyridyl)-4-phenyl-4H-1,3,4-oxadiazine-5(6H)-one hydrochloride]	21.1 µM
O=C1COC(c2ccccc2)=NN1c1ccsc1 [Example 44, 2-Phenyl-4-(3-thienyl)-4H-1,3,4-oxadiazine-5(6H)-one]	22.7 µM
O=C1COC(c2ccccc2)=NN1c1ccccc1Cl [Example 100, 2-Phenyl-4-(2-chlorophenyl)-4H-1,3,4-oxadiazine-5(6)-one]	0.8 µM
O=C1COC(c2ccccc2)=NN1c1ccccc1O [Example 50, 2-Phenyl-4-(2-hydroxyphenyl)-4H-1,3,4-oxadiazine-5(6H)-one]	27.9 µM
O=C(Nc1ccccn1)C1=NN(c2ccccc2)C(=O)CO1 [Example 95, N-(2-Pyridyl)-[4-phenyl-4H-1,3,4-oxadiazine-5(6H)-one-2-yl]carboxamide hydrochloride]	48.2 µM
O=C1COC(c2ccccc2O)=NN1c1ccccc1F [Example 51, 2-(2-Hydroxyphenyl)-4-(2-fluorophenyl)-4H-1,3,4-oxadiazine-5(6H)-one]	1.06 µM
CC(c1ccncc1)N1N=C(c2ccccc2)OCC1=O (stereo not drawn) [Example 89, 2-Phenyl-4-[1-(4-pyridyl)ethyl]-4H-1,3,4-oxadiazine-5(6H)-one oxalate]	54 µM
O=C1COC(c2cccs2)=NN1c1ccccc1 [Example 31, 2-(2-Thienyl)-4-phenyl-4H-1,3,4-oxadiazine-5(6H)-one]	8.3 µM
O=C1COC(c2ccccc2O)=NN1c1ccc(F)cc1F [Example 53, 2-(2-Hydroxyphenyl)-4-(2,4-difluorophenyl)-4H-1,3,4-oxadiazine-5(6H)-one]	1.92 µM
O=C1COC(c2ccccn2)=NN1c1ccccc1Br [Example 33, 2-(2-Pyridyl)-4-(2-bromophenyl)-4H-1,3,4-oxadiazine-5(6H)-one]	4.28 µM
O=C1CSC(c2ccccc2)=NN1c1ccccc1 [Example 4, 2,4-Diphenyl-4H-1,3,4-thiadiazine-5(6H)-one]	12 µM
O=C1COC(c2ccccn2)=NN1C1CCCCC1 [Example 11, 2-(2-Pyridyl)-4-cyclohexyl-4H-1,3,4-oxadiazine-5(6H)-one hydrochloride]	69 µM
O=C1COC(c2ccccc2)=NN1c1ccccc1Br [Example 30, 2-Phenyl-4-(2-bromophenyl)-4H-1,3,4-oxadiazine-5(6H)-one]	1.73 µM
O=C1COC(c2ccccc2OCCCN2CCCCC2)=NN1c1ccccc1 [Example 63, 2-{2-[3-(1-Piperidinyl)propoxy]phenyl}-4-phenyl-4H-1,3,4-oxadiazine-5(6H)-one hydrochloride]	24.7 µM
O=C1COC(c2ccnc(Cl)c2)=NN1c1ccccc1 [Example 12, 2-(2-Chloro-4-pyridyl)-4-phenyl-4H-1,3,4-oxadiazine-5(6H)-one hydrochloride]	42.8 µM
O=C1COC(c2ccccc2OCc2ccncc2)=NN1c1ccccc1 [Example 55, 2-[2-(4-Pyridyl)methoxyphenyl]-4-phenyl-4H-1,3,4-oxadiazine-5(6H)-one]	10.5 µM
O=C1COC(Cc2ccccc2)=NN1c1ccccc1 [Example 32, 2-Benzyl-4-phenyl-4H-1,3,4-oxadiazine-5(6H)-one]	36.6 µM
